According to patent publication US20090220462A1, “STEM CELLS” (Duke University, priority 2005, published 2009):
Several values for one entry are separate records, joined by “and”; a condition that tells them apart may be missing. Equal values may be shown once.

Tests used:
[1] = tested on: CB CD34+CD38−lin− cells; experiment: 7 day culture of CB CD34+CD38−lin− cells with TSF with and without ATRA (immunophenotype, CFC, morphology); type: cell-based, human
Procedure: (§1) Primary human BM and CB CD34^+CD38^−lin^− cells were placed in culture with 20 ng/mL thrombopoietin, 100 ng/mL SCF, and flt-3 ligand (TSF), a cytokine combination previously found to induce human stem and progenitor cell proliferation and differentiation in vitro (Chute et al, Blood 105:576-583 (2005), Chute et al, Stem ells 22:202-215 (2004)). In order to assess whether inhibition of ALDH activity could block the differentiation of human HSCs induced to proliferate by TSF, 1-2×10^4 BM or CB CD34^+CD38^−lin^− cells were cultured×7 days with IMDM, 10% FBS and 1% pcn/strp supplemented with TSF with and without 100 μM DEAB. At day 7, the progeny of all cultures were collected, washed×2 and cell counts were performed. A minimum of n=5 experiments was performed per culture condition to allow statistical comparisons to be performed. Immunophenotypic analysis was performed on progeny cells using anti-human CD34 and CD38 mAbs (Becton Dickinson) and isotype control IgG mAbs and compared with day 0 (input) staining. Fourteen day methylcellulose CFC assays (colony forming unit-granulocyte monocyte, CFU-GM, burst forming unit-erythroid, BFU-E, and colony forming unit-mix, CFU-Mix) were performed as we have previously described (Chute et al, Blood 100:4433-4439 (2002), Chute et al, Blood 105:576-583 (2005), Chute et al, Stem ells 22:202-215 (2004)) to compare the number of lineage committed CFCs within day 0 CD34^+CD38^−lin^− cells and their progeny. Morphologic analysis of day 0 CD34^+CD38^−lin^− cells and their progeny following 7 day culture was performed using Wrights-Geimsa staining and microscopic analysis under oil immersion (100×).
In order to assess the hematopoietic effects of retinoid agonists on purified human HSCs, BM and CB CD34^+CD38^−lin^− cells were placed in culture with TSF with and without 1 μM all-trans retinoic acid (ATRA), an agonist of RAR. Total cell expansion, immunophenotype, CFC content and morphologic analysis was performed on ATRA-treated progeny and compared with both day 0 CD34^+CD38^−lin^− populations and the progeny of TSF alone to assess the impact of retinoid agonism on the differentiation of human HSCs.

[2] = tested on: ALDH; experiment: ALDH activity by ALDEFLUOR staining of cultured CD34+CD38− cells; type: cell-based, human; conditions: 100 μM DEAB+TSF, 7 days, compared to day 0 or TSF alone, P=0.001
Procedure: (§2) Primary human BM and CB CD34^+CD38^−lin^− cells were placed in culture with 20 ng/mL thrombopoietin, 100 ng/mL SCF, and flt-3 ligand (TSF), a cytokine combination previously found to induce human stem and progenitor cell proliferation and differentiation in vitro (Chute et al, Blood 105:576-583 (2005), Chute et al, Stem ells 22:202-215 (2004)). In order to assess whether inhibition of ALDH activity could block the differentiation of human HSCs induced to proliferate by TSF, 1-2×10^4 BM or CB CD34^+CD38^−lin^− cells were cultured×7 days with IMDM, 10% FBS and 1% pcn/strp supplemented with TSF with and without 100 μM DEAB. At day 7, the progeny of all cultures were collected, washed×2 and cell counts were performed. A minimum of n=5 experiments was performed per culture condition to allow statistical comparisons to be performed. Immunophenotypic analysis was performed on progeny cells using anti-human CD34 and CD38 mAbs (Becton Dickinson) and isotype control IgG mAbs and compared with day 0 (input) staining. […]

[3] = tested on: BM and CB CD34+CD38−lin− cells; experiment: 7 day culture of BM and CB CD34+CD38−lin− cells with TSF with and without DEAB (cell counts, immunophenotype, morphology); type: cell-based, human
Procedure: as §1

[4] = tested on: BM CD34+CD38−lin− cells; experiment: Fourteen day methylcellulose CFC assay of culture progeny; type: cell-based, human; conditions: DEAB+TSF 7 days (TSF alone 5-fold increase vs input)
Procedure: as §2

[5] = tested on: CB CD34+CD38−lin− cells (SRCs); experiment: Long-term repopulating assay in NOD/SCID mice, CB cells (limiting dilution, SRC frequency); type: in vivo, human
Procedure: (§3) NOD/SCID mice (Schulz et al, J. Immunol. 154:180-191 (1995)) were transplanted with either day 0 FACS-sorted BM or CB CD34^+CD38^−lin− HSC-enriched cells or the progeny of CD34^+CD38^−lin− cells cultured with TSF alone or TSF supplemented with 100 μM DEAB. Cells were transplanted via tail vein injection after irradiating NOD/SCID mice with 300 cGy using an X-ray irradiator as previously described (Chute et al, Blood 100:4433-4439 (2002), Chute et al, Blood 105:576-583 (2005)). Day 0 CD34^+CD38^−lin− HSCs and their progeny were co-transplanted with 2×10^4 […] to facilitate engraftment as previously described (Bonnet et al, Bone Marrow Transpl. 23:203-209 (1999), Bhatia et al, Proc. Natl. Acad. Sci. USA 94:5320-5325 (1997)).
(§4) All mice in each group were sacrificed at week 8 and marrow samples were obtained by flushing their femurs with IMDM at 4° C. Red cells were lysed using red cell lysis buffer (Sigma-Aldrich) and flow cytometric analysis of human hematopoietic engraftment was performed as previously described using commercially available mAbs against human leukocyte differentiation antigens to identify engrafted human leukocytes and discriminate their hematopoietic lineages (Chute et al, Blood 100:4433-4439 (2002), Chute et al, Blood 105:576-583 (2005), Trischmann et al, J. Hematother. 2:305-313 (1993)).
(§5) Comparisons of data from in vitro experiments were made using the Student's t test. For purposes of the limiting dilution analysis, a transplanted mouse was scored as positively engrafted if ≧0.1% of the marrow cells expressed human-CD45 via high resolution FACS analysis. This criteria is consistent with previously published criteria for human cell repopulation in NOD/SCID mice (Chute et al, Blood 100:4433-4439 (2002), Dorrell et al, Blood 95:102-110 (2000)). SRC frequency in each cell source was calculated using the maximum likelihood estimator as described previously by Taswell (J. Immunol. 126:1614-1619 (1981), Wang et al, Blood 89:3919-3924 (1997), Ueda et al, J. Clin. Invest. 105:1013-1021 (2000)). Confidence intervals for the frequencies were calculated using the profile likelihood method, and the likelihood ratio test was used to confirm the fit of the model.

[6] = tested on: BM CD34+CD38−lin− cells (SRCs); experiment: Long-term repopulating assay in NOD/SCID mice, BM cells (SRC frequency); type: in vivo, human
Procedure: as §3, §4, §5

[7] = tested on: HOXB4; experiment: Quantitative real-time PCR of HOXB4 in cultured CB CD34+CD38−lin− cells; type: cell-based, human; conditions: DEAB added to TSF (TSF alone 5-fold decrease vs day 0)
Procedure: (§6) Extraction of total RNA from Day 0 and Day 7 CB CD34^+ populations was done using a RNeasy Mini spin column (Qiagen, Valencia, Calif.) according to the manufacturer's recommended protocol. […] Briefly, total RNA was isolated from CD34^+CD38^−lin^− cells according to the manufacturer's instructions for the RNaqueous®-Micro (Ambion) and reversed-transcribed to cDNA using iScript™ cDNA synthesis Kit (Biorad, Hercules, Calif.). cDNA concentrations were measured with a fluorometer (Turner Designs, Sunnyvale, Calif.) using RiboGreen reagent (Invitrogen). PCR amplification reactions were performed in 13 μl and contained equal amounts of cDNAs, 6.5 μl of iQ SYBR green supermix (Bio-Rad), 0.2 μM of each forward and reverse gene-specific primers for genes of interest and the normalization gene 36B4. PCR was performed on an iCycler (Bio-Rad) according to the following cycling conditions: an initial cycle of 15 min at 95° C.; 45 cycles of 45 sec at 95° C., 15 sec at 55° C., and 15 sec at 72° C.; followed by a melt-curve analysis cycle with steps of 10 sec each at 0.5° C. increments from 60 to 95° C. Amplification rates were visualized and analyzed on ICYCLER IQ optical system software version 3.0 (Bio-Rad). Gene-specific primers were purchased from Integrated DNA Technologies (Coralville, Iowa).

[8] = tested on: Notch; experiment: Quantitative real-time PCR of Notch in cultured CB CD34+CD38−lin− cells; type: cell-based, human; conditions: DEAB+TSF
Procedure: as §6

[9] = progeny of DEAB+TSF cultures, cell dose 0.5-1×10^3, 8 weeks

## CC1=C(/C=C/C(C)=C/C=C/C(C)=C/C(=O)O)C(C)(C)CCC1 [ATRA, all-trans retinoic acid]
[1]; 1 μM ATRA+100 μM DEAB+TSF
  HSC differentiation in presence of DEAB: HSC differentiation occurred
[1]; ATRA+TSF treated cultures
  number of CFCs compared to TSF alone: decreased
[1]; ATRA, by day 7
  differentiation and maturation of human HSCs: induced pronounced differentiation and myeloid maturation
[1]; TSF+1 μM ATRA, day 7
  CD34+CD38− cells remaining in culture: no CD34^+CD38^− cells remained
  percentage of CD34+ cells relative to TSF alone: declined

## CCN(CC)c1ccc(C=O)cc1 [DEAB]
[2]
  ALDH activity in CD34+CD38− cells: significantly reduced
[3]; 100 μM DEAB+TSF, 7 days (TSF alone 5-fold decrease)
  absolute numbers of CD34+CD38− cells compared to day 0: maintenance
[3]; 100 μM DEAB+TSF, 7 days (TSF alone 15-fold)
  mean total cell expansion: 4 fold
[3]; BM and CB cells, DEAB+TSF 7 days, compared to TSF alone, P=0.01 and P=0.02
  percentages of primitive CD34+CD38− cells in progeny: significantly higher
[3]; DEAB+TSF cultures, Wrights-Giemsa staining, data not shown
  morphologic examination of progeny: predominance of cells with high nuclear:cytoplasmic ratios and prominent nucleoli
[4]
  CFC content of progeny: little CFC content
[5]; DEAB+TSF versus day 0 cells or TSF alone
  fold increase in SRC frequency: 2 fold
[5]; mice transplanted with DEAB+TSF cultured cells, flow cytometry of BM
  multilineage differentiation in transplanted mice: extensive CD34^+ progenitor cell, CD19^+ B lymphoid and CD 33/13^+ myeloid differentiation
[5]; [9]
  fold higher levels of huCD45+ cell engraftment: 4 fold
  mean huCD45+ cell engraftment: 0.9%
[5]; progeny of DEAB+TSF cultures, cell dose 0.5-1×10^3, 9 of 17 mice (day 0 31%, TSF 18%)
  mice showing huCD45+ cell repopulation at 8 weeks: 53%
[5]; progeny of DEAB+TSF cultures, cell dose 2.5×10^3
  higher levels of huCD45+ cell engraftment versus day 0 or TSF: 1 log
[5]; progeny of DEAB+TSF cultures, cell dose 2.5×10^3, 8 weeks (day 0 0.9%, TSF 0.7%)
  mean huCD45+ cell engraftment: 8.0%
[6]; cell dose 1-2.5×10^3, TSF+DEAB progeny
  huCD45+ cell repopulation: no huCD45^+ cell repopulation was detected
[6]; progeny of 5×10^3 cells after DEAB+TSF culture
  transplanted mice with human repopulation (FIG. 4 legend): 50-80%
[6]; progeny of DEAB+TSF cultures, cell dose 5×10^3
  mean huCD45+ cell engraftment: 0.1%
[6]; progeny of DEAB+TSF cultures, cell dose 5×10^3, 3 of 6 mice (day 0 and TSF 0 of 5)
  mice showing huCD45+ cell engraftment: 50%
[7]
  HOXB4 expression relative to input levels: 80% and 70%
[8]
  Notch transcription compared to TSF alone: did not alter
